Assay results as given in US20230339878A1, “SLC26A3 INHIBITORS AND USE THEREOF” (THE REGENTS OF THE UNIVERSITY OF CALIFORNIA, priority 2018, published 2023).
Entries after “also recorded” stand apart in the source; their conditions may differ. Read-outs that look alike come from different tables or passages of the source.

How the values were obtained:
[1] = test system: cystic fibrosis (CF) mice (ΔF508 homozygous) lacking functional CFTR; assay: Loperamide-induced constipation model in cystic fibrosis mice; format: in vivo; details: 5 mg/kg oral
Description: Female CD1 mice (age 8-10 weeks) were administered loperamide (0.3 mg/kg, intraperitoneally, Sigma-Aldrich) to produce constipation. Compound A1 (DRAinh-A250) (5 mg/kg, in saline containing vehicle (5% DMSO and 10% Kolliphor HS 15; Sigma-Aldrich)), tenapanor (5 mg/kg, in vehicle), both compounds (5 mg/kg each, in vehicle), or vehicle alone were administered by oral gavage 1 hour before loperamide. After loperamide injection, mice were placed individually in metabolic cages with ad libitum access to food and water. Stool samples were collected for 3 h, and total stool weight and number of fecal pellets were quantified. To measure stool water content, stool samples were dried at 80° C. for 24 h and water content was calculated as [wet weight-dry weight]/wet weight. Similar studies were done in cystic fibrosis (CF) mice (ΔF508 homozygous) lacking functional CFTR.

[2] = test system: mouse mid-jejunal closed loops; assay: Closed mid-jejunal loop fluid absorption in mice; format: in vivo; details: 10 µM intraluminal, 30 min
Description: Female CD1 mice (age 8-10 weeks) were given free access to Pedialyte (per liter: Na^+ 45 mEq, Cl^- 35 mEq, K^+ 20 mEq, dextrose 25 g; Abbott, Abbot Park, IL) but not solid food for 48 h before experiments. Mice were treated with 500 µL mineral oil once a day rectally (last dose 12 h before surgeries) during this period to evacuate the colon. Closed intestinal loops were isolated as described. Mice were anesthetized with isoflurane and body temperature was maintained during surgery at 36-38° C. using a heating pad. A small abdominal incision was made to expose the distal colon, and one closed distal colonic loop (length 1.5-2 cm) was isolated with sutures in each mouse. Loops were injected with 100 µL phosphate-buffered saline (PBS, pH: 7.4, in mM: 137 NaCl, 2.7 KCl, 8 Na2HPO4, 1.8 KH2PO4, 1 CaCl2, 0.5 MgCl2) without and with 10 µM Compound A1 and/or 10 µM tenapanor (MedChemExpress, Monmouth Junction, NJ). The abdominal incision was closed with sutures, and mice were allowed to recover from anesthesia. Colonic loops were removed at 0 and 60 min (in separate mice) and loop length and weight were measured to quantify fluid absorption. Luminal fluid was emptied with a syringe and pH was measured immediately using AB15 pH Meter (Thermo Fisher Scientific, South San Francisco, CA). In separate studies, mid-jejunal loops (length 2-3 cm, 3-4 loops per mouse) were isolated as described above, injected with 100 µL PBS without or with 10 µM Compound A1 and/or 10 µM tenapanor, and excised at 0 and 30 min to measure loop length and weight.

[3] = molecular target: T1, murine slc26a3 (Mus musculus, UniProt Q9WVC8); assay: slc26a3-mediated Cl-/I- exchange, YFP fluorescence quenching in FRT-YFP-slc26a3 cells; format: cell-based
T1 construct: host or cells: Fischer rat thyroid (FRT) cells expressing YFP, clonal line FRT-YFP-slc26a3
T1 sequence (Q9WVC8 1-757): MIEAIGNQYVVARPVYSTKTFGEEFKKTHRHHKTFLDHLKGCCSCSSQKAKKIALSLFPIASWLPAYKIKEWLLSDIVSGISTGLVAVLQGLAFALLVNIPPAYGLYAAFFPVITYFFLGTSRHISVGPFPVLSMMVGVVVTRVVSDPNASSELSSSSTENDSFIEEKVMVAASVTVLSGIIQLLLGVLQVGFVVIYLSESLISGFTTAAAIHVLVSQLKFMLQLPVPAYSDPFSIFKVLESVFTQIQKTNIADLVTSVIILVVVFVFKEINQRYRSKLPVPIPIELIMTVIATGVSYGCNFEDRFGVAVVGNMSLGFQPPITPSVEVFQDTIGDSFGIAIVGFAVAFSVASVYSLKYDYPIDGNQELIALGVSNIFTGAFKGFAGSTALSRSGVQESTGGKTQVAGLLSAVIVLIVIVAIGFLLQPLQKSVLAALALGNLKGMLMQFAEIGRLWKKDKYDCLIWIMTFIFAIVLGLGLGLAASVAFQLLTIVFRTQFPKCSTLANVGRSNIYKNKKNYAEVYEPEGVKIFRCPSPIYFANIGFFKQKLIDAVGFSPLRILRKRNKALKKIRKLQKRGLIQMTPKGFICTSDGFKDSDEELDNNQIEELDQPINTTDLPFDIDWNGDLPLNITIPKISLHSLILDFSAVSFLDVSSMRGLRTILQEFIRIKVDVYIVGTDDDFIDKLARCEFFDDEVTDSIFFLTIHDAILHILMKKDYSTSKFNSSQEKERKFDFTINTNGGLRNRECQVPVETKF

[4] = molecular target: T1, murine slc26a3; assay: as above; format: cell-based; remark: listed apart in the source
Description: High-throughput screening to identify slc26a3 inhibitors using FRT-YFP- slc26a3 cells was done with a semi-automated Beckman Coulter (Indianapolis, IN) platform with FLUOstar OMEGA plate readers (BMG Labtech, Cary, NC), essentially as described for discovery of pendrin inhibitors. Initial screening was done of ~50,000 drug-like synthetic small molecules (ChemDiv, San Diego, CA) at a concentration of 25 µM using a Cl^-/I^- exchange protocol to assay slc26a3 function. Following initial screening, compound analogs were purchased (ChemDiv, San Diego, CA) to generate structure-activity data.
For the screening, FRT-YFP-slc26a3 cells were plated in 96-well black-walled, clear-bottom tissue culture plates (Corning Life Sciences, Tewksbury, MA) at a density of 20,000 cells/well and cultured for 48 hours until confluent. For screening, cells were washed twice in PBS and incubated for 10 min in 100 µl PBS containing test compounds prior to assay of slc26a3 function. Assays were done using a FLUOstar OMEGA plate reader (BMG Labtech, Cary, NC) over 12 s with initial fluorescence recorded over 1 s prior to addition of 100 µl NaI-substituted PBS (137 mM NaCl replaced by 137 mM NaI) to drive Cl^-/I^- exchange. The initial rate of Cl^-/I^- exchange was determined from fluorescence intensity by single exponential regression. All plates contained wells with negative (1 % DMSO) and positive (350 µM niflumic acid) controls.
Screening was done using an FRT cell line stably expressing murine slc26a3 and a halide-sensitive yellow fluorescent protein (FRT-YFP- slc26a3 cells). FRT cells were used because of their low intrinsic permeability to anions that are transported by slc26a3, and because of their good adherence and rapid growth on uncoated plastic. As diagrammed in FIG. 1A, slc26a3-mediated transport was assayed from the kinetics of YFP fluorescence quenching in response to extracellular addition of I^- to drive Cl^-/I^- exchange; transport inhibition reduces the rate of fluorescence decrease.

Compound | efficacy in loperamide-induced constipation in CF mice [1] | loop weight/length ratio (fluid absorption), mid-jejunal loops [2] | luminal fluid pH, mid-jejunal loops [2] | t½ for inhibition ([3]; 1 µM, incubation for different times prior to Cl-/I- exchange) | IC50 ([3]; summary over three anion exchange modes, read-out: IC50 for slc26a3-mediated Cl- exchange with HCO3-, I- and SCN-) [nM] | reversibility of inhibition ([4]; 1 µM for 10 min, then washed three times) | IC50 ([4]; selected class A analogs, Table 1, Cl-/I- exchange, read-out: IC50) [nM] | IC50 ([4]; summary statement, read-out: IC50 for inhibition of SLC26A3-mediated anion exchange) [nM] | potency compared to Compound A1 (DRAinh-A250) ([4]; FIG. 9) | IC50 ([4]; FIG. 9 concentration-inhibition curves, read-out: IC50 for slc26a3-mediated Cl-/I- exchange) [nM] | IC50 ([4]; representative Class A compounds, Table 3, read-out: IC50) [nM]
Cc1c(CC(=O)O)c(=O)oc2c(C)c(OCc3cccc(Br)c3)ccc12 [Compound A1] | effective in loperamide-treated cystic fibrosis mice; also recorded: reduces loperamide-induced constipation | did not produce significant changes; also recorded: not in jejunal loops | did not alter acidification | ~ 30 s | ~200 | full reversibility; also recorded: fully and reversibly inhibited | 150 | 100 to 200 | – | – | –
Cc1c(CC(=O)O)c(=O)oc2c(C)c(OCc3cccc(I)c3)ccc12 [DRAinh-A270] | – | – | – | – | – | – | – | – | four-fold improved potency | ~50 | 40
